Results published in article PMC5399447, “Neuroprotective pentapeptide CN-105 is associated with reduced sterile inflammation and improved functional outcomes in a traumatic brain injury murine model” (Scientific Reports, 2017).

System: 84 genes related to inflammatory and autoimmune processes
Experiment: Mouse Inflammatory Response and Autoimmunity PCR Array, whole brain
Format: in vivo
Protocol: Frozen, pulverized whole brain tissue was processed for RNA extraction from a separate cohort of treated and untreated injured animals on days 1 post-injury(CN-105, n = 4; vehicle, n = 3; Control(sham-operated), n = 3). Total RNA was extracted from frozen, pulverized whole brain tissue using RNeasy Lipid Tissue Mini Kit(Qiagen, Valencia, CA). RNA quantity and quality was assessed with the NanoDrop ND-1000 spectrophotometer(NanoDrop Technologies, Inc., Wilmington, DE) and by agarose gel electrophoresis. Only samples with a 260/280 ratio between 1.9–2.1, and a 260/230 ratio greater than 2.0, were further processed. First strand complementary DNA(cDNA) was generated from 2 μg total RNA using the RT[2] First strand kit(SABiosciences, Frederick, MD.)
Gene expression was measured using the Mouse Inflammatory Response and Autoimmunity PCR Array(SABiosciences, Frederick, MD), which profiles the expression of 84 genes related to inflammatory and autoimmune processes. RT-PCR was performed according to manufacturer’s instructions Quality of the cDNA and PCR efficiency was verified by housekeeping genes and RT-PCR controls included in the PCR Array.
Raw RT-PCR data were analyzed using the Web-Based PCR Array Data Analysis software(SABiosciences). ΔCt values and ΔΔCt - based fold-change were calculated from raw threshold cycle data, using beta-actin and glyceraldehyde 3-phosphate dehydrogenase(GAPDH) as internal standards for normalization. Fold changes were then normalized against sham-operated controls.

[1] = TBI + CN-105 0.05 mg/kg iv 2 h post injury, brain 24 h
[2] = TBI CN-105 vs TBI vehicle, brain 24 h post TBI

Substance: Ac-VSRRR-amide [CN-105]
- Bcl6 ΔCt value, TBI-CN-105 [1]: 5.7E − 01
- C3ar1 ΔCt value, TBI-CN-105 [1]: 1.2E − 01
- C3 ΔCt value, TBI-CN-105 [1]: 1.9E − 03
- C4b ΔCt value, TBI-CN-105 [1]: 5.9E − 01
- Ccl1 ΔCt value, TBI-CN-105 [1]: 9.1E − 01
- Ccl2 ΔCt value, TBI-CN-105 [1]: 2.5E − 02
- Ccl3 ΔCt value, TBI-CN-105 [1]: 8.9E − 03
- Ccl4 ΔCt value, TBI-CN-105 [1]: 1.2E − 02
- Ccl5 ΔCt value, TBI-CN-105 [1]: 3.4E − 03
- Ccl7 ΔCt value, TBI-CN-105 [1]: 3.7E − 03
- Ccl8 ΔCt value, TBI-CN-105 [1]: 4.2E − 03
- Ccl11 ΔCt value, TBI-CN-105 [1]: 1.8E − 01
- Ccl12 ΔCt value, TBI-CN-105 [1]: 1.3E − 02
- Ccl17 ΔCt value, TBI-CN-105 [1]: 1.0E − 03
- Ccl19 ΔCt value, TBI-CN-105 [1]: 3.4E − 03
- Ccl20 ΔCt value, TBI-CN-105 [1]: 7.9E − 02
- Ccl22 ΔCt value, TBI-CN-105 [1]: 2.2E − 02
- Ccl24 ΔCt value, TBI-CN-105 [1]: 5.1E − 03
- Ccl25 ΔCt value, TBI-CN-105 [1]: 9.5E − 02
- Ccr1 ΔCt value, TBI-CN-105 [1]: 3.0E − 04
- Ccr2 ΔCt value, TBI-CN-105 [1]: 1.5E − 03
- Ccr3 ΔCt value, TBI-CN-105 [1]: 1.1E − 01
- Ccr4 ΔCt value, TBI-CN-105 [1]: 3.1E − 02
- Ccr7 ΔCt value, TBI-CN-105 [1]: 3.4E − 02
- Cd40lg ΔCt value, TBI-CN-105 [1]: 4.2E − 03
- Cd40 ΔCt value, TBI-CN-105 [1]: 2.1E − 02
- Cebpb ΔCt value, TBI-CN-105 [1]: 2.4E − 01
- Crp ΔCt value, TBI-CN-105 [1]: 7.1E − 04
- Csf1 ΔCt value, TBI-CN-105 [1]: 1.2E − 02
- Cxcl1 ΔCt value, TBI-CN-105 [1]: 1.8E − 03
- Cxcl2 ΔCt value, TBI-CN-105 [1]: 1.7E − 03
- Cxcl3 ΔCt value, TBI-CN-105 [1]: 1.6E + 00
- Cxcl5 ΔCt value, TBI-CN-105 [1]: 1.4E + 00
- Cxcl9 ΔCt value, TBI-CN-105 [1]: 2.2E − 03
- Cxcl10 ΔCt value, TBI-CN-105 [1]: 5.3E − 04
- Cxcl11 ΔCt value, TBI-CN-105 [1]: 8.8E − 03
- Cxcr4 ΔCt value, TBI-CN-105 [1]: 9.0E − 02
- Fasl ΔCt value, TBI-CN-105 [1]: 6.7E − 04
- Flt3l ΔCt value, TBI-CN-105 [1]: 7.1E − 04
- Fos ΔCt value, TBI-CN-105 [1]: 1.7E − 01
- Hdac4 ΔCt value, TBI-CN-105 [1]: 8.3E − 01
- Ifng ΔCt value, TBI-CN-105 [1]: 4.3E − 03
- Il1a ΔCt value, TBI-CN-105 [1]: 5.4E − 02
- Il1b ΔCt value, TBI-CN-105 [1]: 4.6E − 01
- Il1f10 ΔCt value, TBI-CN-105 [1]: 5.5E − 03
- Il1r1 ΔCt value, TBI-CN-105 [1]: 7.5E − 04
- Il1rap ΔCt value, TBI-CN-105 [1]: 8.2E − 04
- Il1rn ΔCt value, TBI-CN-105 [1]: 1.7E − 03
- Il6ra ΔCt value, TBI-CN-105 [1]: 1.6E − 01
- Il6 ΔCt value, TBI-CN-105 [1]: 1.8E − 03
- Il7 ΔCt value, TBI-CN-105 [1]: 5.9E − 01
- Il8ra ΔCt value, TBI-CN-105 [1]: 2.6E − 03
- Il8rb ΔCt value, TBI-CN-105 [1]: 5.4E − 03
- Il9 ΔCt value, TBI-CN-105 [1]: 1.4E − 02
- Il10rb ΔCt value, TBI-CN-105 [1]: 2.2E − 02
- Il10 ΔCt value, TBI-CN-105 [1]: 1.6E − 03
- Il18rap ΔCt value, TBI-CN-105 [1]: 6.6E − 03
- Il18 ΔCt value, TBI-CN-105 [1]: 9.6E − 03
- Il22ra2 ΔCt value, TBI-CN-105 [1]: 8.2E − 02
- Il22 ΔCt value, TBI-CN-105 [1]: 3.4E − 03
- Il23a ΔCt value, TBI-CN-105 [1]: 2.3E − 02
- Il23r ΔCt value, TBI-CN-105 [1]: 8.0E − 04
- Itgb2 ΔCt value, TBI-CN-105 [1]: 5.3E − 02
- Kng1 ΔCt value, TBI-CN-105 [1]: 8.5E − 03
- Lta ΔCt value, TBI-CN-105 [1]: 1.1E − 01
- Ltb ΔCt value, TBI-CN-105 [1]: 3.9E − 02
- Ly96 ΔCt value, TBI-CN-105 [1]: 7.7E − 02
- Myd88 ΔCt value, TBI-CN-105 [1]: 6.6E − 03
- Nfatc3 ΔCt value, TBI-CN-105 [1]: 3.2E + 00
- Nfkb1 ΔCt value, TBI-CN-105 [1]: 5.3E − 03
- Nos2 ΔCt value, TBI-CN-105 [1]: 1.6E − 01
- Nr3c1 ΔCt value, TBI-CN-105 [1]: 1.2E − 02
- Ripk2 ΔCt value, TBI-CN-105 [1]: 2.1E − 01
- Tirap ΔCt value, TBI-CN-105 [1]: 5.3E − 02
- Tlr1 ΔCt value, TBI-CN-105 [1]: 7.4E − 03
- Tlr2 ΔCt value, TBI-CN-105 [1]: 9.1E − 03
- Tlr3 ΔCt value, TBI-CN-105 [1]: 5.8E − 02
- Tlr4 ΔCt value, TBI-CN-105 [1]: 2.0E − 02
- Tlr5 ΔCt value, TBI-CN-105 [1]: 1.7E − 03
- Tlr6 ΔCt value, TBI-CN-105 [1]: 7.0E − 03
- Tlr7 ΔCt value, TBI-CN-105 [1]: 9.1E − 01
- Tnf ΔCt value, TBI-CN-105 [1]: 3.8E − 02
- Tnfsf14 ΔCt value, TBI-CN-105 [1]: 9.0E − 03
- Tollip ΔCt value, TBI-CN-105 [1]: 5.1E − 02
- Bcl6 Fold Change [2]: 921
- C3 Fold Change [2]: 1.5
- C3ar1 Fold Change [2]: −3.1
- C4b Fold Change [2]: −1.1
- Ccl1 Fold Change [2]: 1.5
- Ccl2 Fold Change [2]: −2.6
- Ccl3 Fold Change [2]: 1.5
- Ccl4 Fold Change [2]: −2.6
- Ccl5 Fold Change [2]: −1.6
- Ccl7 Fold Change [2]: −1.2
- Ccl8 Fold Change [2]: 31.2
- Ccl11 Fold Change [2]: −3.6
- Ccl12 Fold Change [2]: 64.2
- Ccl17 Fold Change [2]: −1.7
- Ccl19 Fold Change [2]: −5.2
- Ccl20 Fold Change [2]: −1.5
- Ccl22 Fold Change [2]: 60.2
